Source: ChEMBL document CHEMBL1201862, “PubChem BioAssay data set” (2004)
“And” between values parts separate entries of the source, which are not always exact repeats. Equal entries are not always repeated.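 Where inhibition never reached the appropriate level, the endpoint shown equals the highest concentration tested. Otherwise, values were interpolated linearly from a five-concentration, 48-hour dose response in 96-well plates. Here, GI50 denotes the concentration required for 50% inhibition of growth.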 The source made the active and inactive calls. No stated cut-off is given here; in the data, active = GI50 up to about 1.1 µM and inactive = higher.

How the values were obtained:
Experiment in all cases: NCI anticancer screen, dose series, 48 h
[1] = system: SK-MEL-28
[2] = system: Malme-3M
[3] = system: SK-MEL-2
[4] = system: SF-295
[5] = system: CAKI-1
[6] = system: HT-29
[7] = system: NCI-H460
[8] = system: XF498
[9] = system: DMS-114
[10] = system: RPMI-8226
[11] = system: A498
[12] = system: OVCAR-3
[13] = system: CCRF-CEM
[14] = system: T47D
[15] = system: DU-145
[16] = system: SNB-78
[17] = system: UACC-62
[18] = system: LOX IMVI
[19] = system: MCF7
[20] = system: MOLT-4
[21] = system: TK-10
[22] = system: 786-0
[23] = system: K562
[24] = system: SNB-19
[25] = system: NCI-H522
[26] = system: NCI/ADR-RES
[27] = system: UACC-257
[28] = system: PC-3
[29] = system: EKVX
[30] = system: M14
[31] = system: Hs-578T
[32] = system: A549
[33] = system: RXF 393
[34] = system: HCC 2998
[35] = system: HOP-92
[36] = system: MDA-MB-435
[37] = system: OVCAR-4
[38] = system: KM-20L2
[39] = system: HOP-62
[40] = system: SK-OV-3
[41] = system: SN12C
[42] = system: DLD-1
[43] = system: SNB-75
[44] = system: UO-31
[45] = system: MDA-MB-231
[46] = system: U-251
[47] = system: OVCAR-5
[48] = system: BT-549
[49] = system: KM12
[50] = system: SK-MEL-5
[51] = system: DMS-273
[52] = system: SF-539
[53] = system: NCI-H226
[54] = system: M19-MEL
[55] = system: ACHN
[56] = system: COLO 205
[57] = system: HL-60
[58] = system: SW-620
[59] = system: LXFL 529
[60] = system: HCT-116
[61] = system: SR
[62] = system: OVCAR-8
[63] = system: NCI-H23
[64] = system: SF-268
[65] = system: IGROV-1
[66] = system: HCT-15
[67] = system: MDA-N

Measured: GI50

COc1ccc(N2C(=O)[C@H]3CC(C)c4c([nH]c5ccccc45)[C@H]3C2=O)cc1 (stereo partly drawn)
active: [25] 1.1 µM | [36] 0.611 µM | [67] 0.681 µM
inactive: [1] 4.82 µM | [2] 2.11 µM | [3] 2.24 µM | [4] 1.74 µM | [5] 3.08 µM | [6] 2.92 µM | [7] 3.69 µM | [8] 4.76 µM | [9] 2.01 µM | [10] 3.48 µM | [11] 8.15 µM | [12] 1.87 µM | [13] 2.49 µM | [14] 4.26 µM | [15] 4.7 µM | [16] 5.08 µM | [17] 1.31 µM | [18] 4.6 µM | [19] 2.25 µM | [20] 3.78 µM | [21] 9.86 µM | [22] 3.48 µM | [23] 1.15 µM | [24] 5.66 µM | [26] 1.63 µM | [27] 4.6 µM | [28] 1.66 µM | [29] 24 µM | [30] 2.48 µM | [31] 1.88 µM | [32] 5.85 µM | [33] 1.53 µM | [34] 3.65 µM | [35] 4.65 µM | [37] 5.98 µM | [38] 2.99 µM | [39] 2.15 µM | [40] 2.4 µM | [41] 6.38 µM | [42] 3.54 µM | [43] 2.03 µM | [44] 5.61 µM | [45] 6.35 µM | [46] 3.15 µM | [47] 33.7 µM | [48] 8.83 µM | [49] 2.77 µM | [50] 2.31 µM | [51] 1.51 µM | [52] 2.77 µM | [53] 5.66 µM | [54] 2.13 µM | [55] 6.92 µM | [56] 2.5 µM | [57] 1.83 µM | [58] 2.87 µM | [59] 4.14 µM | [60] 3.37 µM | [61] 2.15 µM | [62] 5.64 µM | [63] 3.8 µM | [64] 10.3 µM | [65] 4.41 µM
2.72 µM: [66]

Cc1cc2nc3c(C(OC4OC(CO)C(O)C(O)C4O)C(O)CO)nn(-c4ccccc4)c3nc2cc1C (stereo not drawn)
inactive: [1] > 100 µM | [2] > 100 µM | [4] > 100 µM | [6] > 100 µM | [7] > 100 µM | [8] > 100 µM | [9] > 100 µM | [10] > 100 µM | [11] > 100 µM | [12] > 100 µM | [13] > 100 µM | [16] > 100 µM | [17] > 100 µM | [18] > 100 µM | [20] > 100 µM | [21] > 100 µM | [22] > 100 µM | [23] > 100 µM | [24] > 100 µM | [25] > 100 µM | [27] > 100 µM | [29] > 100 µM | [30] > 100 µM | [33] > 100 µM | [34] > 100 µM | [37] > 100 µM | [38] > 100 µM | [39] > 100 µM | [40] > 100 µM | [41] > 100 µM | [42] > 100 µM | [43] 64 µM | [44] > 100 µM | [46] > 100 µM | [47] > 100 µM | [49] > 100 µM | [52] > 100 µM | [55] > 100 µM | [60] > 100 µM | [61] > 100 µM | [62] > 100 µM | [63] > 100 µM | [64] > 100 µM
> 100 µM: [66]

CCC(C)(C)NS(=O)(=O)c1ccccc1
> 100 µM: [66]
inactive: [1] > 100 µM | [2] > 100 µM | [3] > 100 µM | [4] > 100 µM | [5] > 100 µM | [6] > 100 µM | [7] > 100 µM | [8] > 100 µM | [9] > 100 µM | [10] > 100 µM | [11] > 100 µM | [12] > 100 µM | [13] > 100 µM | [16] > 100 µM | [17] > 100 µM | [20] > 100 µM | [21] > 100 µM | [22] > 100 µM | [23] > 100 µM | [27] > 100 µM | [29] > 100 µM | [30] > 100 µM | [32] > 100 µM | [33] > 100 µM | [34] > 100 µM | [37] > 100 µM | [38] > 100 µM | [39] > 100 µM | [40] > 100 µM | [42] > 100 µM | [43] > 100 µM | [44] > 100 µM | [46] > 100 µM | [47] > 100 µM | [49] > 100 µM | [50] > 100 µM | [51] > 100 µM | [52] > 100 µM | [53] > 10 µM | [54] > 100 µM | [55] > 100 µM | [57] > 100 µM | [58] > 100 µM | [59] > 100 µM | [60] > 100 µM | [62] > 100 µM | [63] > 100 µM | [65] > 100 µM

COc1cc(-c2ccc(NC(=O)SCCC(=O)O)cc2OC)ccc1NC(=O)SCCC(=O)O
inactive: [1] > 100 µM | [2] > 100 µM | [3] > 100 µM | [4] > 100 µM | [5] > 100 µM | [6] > 100 µM | [7] > 100 µM | [8] 74.3 µM | [9] > 100 µM | [10] > 100 µM | [11] > 100 µM | [12] > 100 µM | [13] 98.2 µM | [16] > 100 µM | [18] > 100 µM | [20] > 100 µM | [21] > 100 µM | [22] > 100 µM | [23] > 100 µM | [24] > 100 µM | [25] > 100 µM | [27] > 100 µM | [29] > 100 µM | [30] > 100 µM | [32] > 100 µM | [33] > 100 µM | [37] > 100 µM | [38] > 100 µM | [39] > 100 µM | [41] > 100 µM | [43] 65.3 µM | [44] > 100 µM | [46] > 100 µM | [47] > 100 µM | [49] > 100 µM | [50] > 100 µM | [51] > 100 µM | [52] > 100 µM | [53] > 100 µM | [54] > 100 µM | [55] > 100 µM | [56] > 100 µM | [57] 24.9 µM | [58] > 100 µM | [59] > 100 µM | [60] > 100 µM | [61] > 100 µM | [62] > 100 µM | [63] > 100 µM | [64] > 100 µM
> 100 µM: [66]

CC1(O)CC2C(CC1SCc1ccccc1)C2(C)C (stereo not drawn)
16.9 µM and 22.3 µM: [66]
inactive: [1] 21 µM and 29.3 µM | [2] 22 µM and 16.3 µM | [3] 17.3 µM and 11.4 µM | [4] 28.2 µM | [5] 15.8 µM and 12.5 µM | [6] 16.4 µM and 23.1 µM | [7] 14.6 µM and 22.9 µM | [8] 20.5 µM and 15.2 µM | [9] 14.5 µM | [10] 11.9 µM and 19.8 µM | [11] 18.3 µM and 28.1 µM | [12] 12.3 µM and 16.9 µM | [17] 32.4 µM and 19.3 µM | [18] 17.1 µM and 15.5 µM | [22] 15.8 µM and 21.7 µM | [25] 13.7 µM and 11.9 µM | [29] 16.7 µM and 29.7 µM | [30] 30.1 µM and 15.5 µM | [33] 15.3 µM and 18.5 µM | [38] 20.6 µM and 26.6 µM | [39] 24.9 µM and 16.6 µM | [41] 16.1 µM and 23.2 µM | [46] 16 µM and 21.2 µM | [47] 17.9 µM and 17.1 µM | [49] 19.3 µM and 25.3 µM | [50] 23.6 µM and 13.1 µM | [51] 14.2 µM and 17.9 µM | [52] 28.8 µM and 19.3 µM | [53] 21.5 µM and 16 µM | [55] 16.8 µM and 18.2 µM | [56] 20 µM and 16.9 µM | [58] 17.5 µM and 21.7 µM | [60] 16.6 µM and 21.2 µM | [62] 16.5 µM and 29.4 µM | [63] 23.3 µM and 14.2 µM | [64] 25.9 µM and 18.7 µM
